Laboratory results published in US20210040089A1, “KRAS MUTANT PROTEIN INHIBITORS” (Jacobio Pharmaceuticals Co., Ltd., priority 2019, published 2021).

How the values were obtained:
NCI-H1373 cells = assay: NCI-H1373 xenograft model; type: in vivo, female BALB/c mice; details: for TGI % / Tumor volume at the end (Day 22): Day 22
Procedure: 4. NCI-H1373 xenograft model
NCI-H1373 cells (5.0E+06 cells) were injected subcutaneously into the right flank of female BALB/c mice (6-8 weeks) in a mixture with Matrigel (BD Bioscience). Mice were monitored daily and caliper measurements began when tumors became visible. Tumor volume was calculated by measuring two perpendicular diameters using the following formula: (L*w^2)/2 in which L and w refer to the length and width tumor diameter, respectively. When the average tumor volume reached 150-200 mm^3, mice were grouped (n=6/group) and treated with compounds. Tumor volume and mice weight was measured twice a week during treatment (˜3 weeks). Tumor growth inhibition rates were calculated by TGI %=(1−(Vt−Vt0)/(Vc−Vc0))*100%, where Vc, Vt are the mean tumor volume of control and treated groups at the end of the study, and Vc0 and Vt0 are the mean tumor volume of control and treated groups at the start.

[1] = tested on: NCI-H358 cells express KRAS G12C; assay: Cell growth inhibition assay (CCK-8); type: cell-based; details: Homo sapiens, 144 h; NCI-H358, 6 days incubation
How it was run: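 Antiproliferative read-out: KRAS G12C-mutant NCI-H358 lung cancer cells (3000/well) exposed to compounds in RPMI 1640 with 10% FBS for 6 days at 37°C. Viability by CCK-8 (OD450) after 1.5-2 h; IC50 from 4-parameter logistic fit.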

KRAS G12C = target: T1, KRAS G12C (Homo sapiens, UniProt P01116, G12C); assay: SOS1 catalyzed nucleotide exchange assay (TR-FRET); type: biochemical; details: GDP-loaded HIS-KRAS(G12C), 1 hour pre-incubation with compound
T1 construct: HIS-KRAS (G12C, aa 2-185, Sino biological); purchased Sino biological
How it was run: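 EDTA-stripped, GDP-loaded His-KRAS G12C (aa 2-185; 3 nM final) preincubated 1 h with compound, then SOS1 ExD (aa 564-1049; 2 μM) and BODIPY-FL GTP (80 nM) added for 4 h at 25 °C. TR-FRET via anti-His Tb cryptate (515/486 nm ratio); IC50 from 4-parameter logistic fit.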

[2] = tested on: Phospho-ERK1/2(THR202/TYR204) in NCI-H358 cells express KRAS G12C; assay: Phospho-ERK1/2(THR202/TYR204) HTRF assay; type: cell-based; details: Homo sapiens; NCI-H358, 2 hours incubation; read-out: p-ERK inhibition in NCI-H358 IC50
How it was run: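 Compounds applied to attached cells for 2 h at 37 °C in RPMI 1640 with 0.1% FBS. Lysate phospho-ERK1/2 detected by HTRF after 4 h antibody incubation at 25 °C; IC50 from 4-parameter logistic fit.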

T1 sequence (P01116 2-185 isoform P01116-2 G12C): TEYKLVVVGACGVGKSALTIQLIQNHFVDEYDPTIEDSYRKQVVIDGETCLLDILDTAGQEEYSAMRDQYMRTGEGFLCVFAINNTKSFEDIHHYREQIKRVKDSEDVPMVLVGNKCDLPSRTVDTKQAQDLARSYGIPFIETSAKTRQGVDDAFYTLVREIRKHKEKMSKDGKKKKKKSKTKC

Structure (SMILES) | TGI % (NCI-H1373 cells; Table 3, 10 mg/kg, QD) [%] | Tumor volume at the end (Day 22) (NCI-H1373 cells; Table 3, 10 mg/kg, QD) [mm^3] | Tumor volume at the start (NCI-H1373 cells; Table 3, 10 mg/kg, QD) [mm^3] | IC50 [1] [nM] | IC50 (KRAS G12C) [nM] | IC50 [2] [nM] | TGI % (NCI-H1373 cells; Table 2, 10 mg/kg, BID) [%] | Tumor volume at the end (Day 22) (NCI-H1373 cells; Table 2, 10 mg/kg, BID) [mm^3] | Tumor volume at the start (NCI-H1373 cells; Table 2, 10 mg/kg, BID) [mm^3] | TGI % (NCI-H1373 cells; Table 2, 10 mg/kg, QD) [%] | Tumor volume at the end (Day 22) (NCI-H1373 cells; Table 2, 10 mg/kg, QD) [mm^3]
C=CC(=O)N1CCN(c2nc(OCC3(CN4CCCC4)CC3)nc3c2CCN(c2cccc4cccc(C)c24)C3)C[C@@H]1CC#N [Compound 67, (S)-2-(1-acryloyl-4-(7-(8-methylnaphthalen-1-yl)-2-((1-(pyrrolidin-1-ylmethyl)cyclopropyl)methoxy)-5,6,7,8-tetrahydropyrido[3,4-d]pyrimidin-4-yl)piperazin-2-yl)acetonitrile] | 106.1 | 114 | 188 | 20.4 | 1.84 | 22.4 | – | – | – | – | –
C=CC(=O)N1CCN(c2nc(OCC3(CN4CCCC4)CC3)nc3c2CCN(c2cccc4cccc(C)c24)C3)CC1CC#N (centres unmarked) [Compound 56, 2-(1-acryloyl-4-(7-(8-methylnaphthalen-1-yl)-2-((1-(pyrrolidin-1-ylmethyl)cyclopropyl)methoxy)-5,6,7,8-tetrahydropyrido[3,4-d]pyrimidin-4-yl)piperazin-2-yl)acetonitrile] | – | – | – | 22.4 | 3.19 | 38.2 | 102.5 | 148 | 191 | – | –
C=C(F)C(=O)N1CCN(c2nc(OCC3CCCN3C)nc3c2CCN(c2cccc4cccc(Cl)c24)C3)C[C@@H]1CC#N (some centres unmarked) [MRTX 849, MRTX849, reference compound] | 86.3 | 355 | 188 | – | – | – | – | – | – | 79.0 | 553
C=C(F)C(=O)N1CCN(c2nc(OCC3(CN(C)C)CC3)nc3c2CCN(c2cccc4cccc(C)c24)C3)C[C@@H]1CC#N [Compound 83, (S)-2-(4-(2-((1-((dimethylamino)methyl)cyclopropyl)methoxy)-7-(8-methylnaphthalen-1-yl)-5,6,7,8-tetrahydropyrido[3,4-d]pyrimidin-4-yl)-1-(2-fluoroacryloyl)piperazin-2-yl)acetonitrile] | – | – | – | 116 | 3.9 | 190 | 89.4 | 374 | 191 | – | –
Cc1cccc2cccc(N3CCc4c(nc(OCC5(CN(C)C)CC5)nc4N4CCN(C(=O)/C=C/CF)[C@@H](CC#N)C4)C3)c12 [Compound 68, (S,E)-2-(4-(2-((1-((dimethylamino)methyl)cyclopropyl)methoxy)-7-(8-methylnaphthalen-1-yl)-5,6,7,8-tetrahydropyrido[3,4-d]pyrimidin-4-yl)-1-(4-fluorobut-2-enoyl)piperazin-2-yl)acetonitrile] | – | – | – | 51.5 | 1.6 | 69.2 | 82.6 | 490 | 191 | – | –
C=CC(=O)N1CCN(c2nc(OCC3CCCC3N(C)C)nc3c2CCN(c2ccccc2C(F)(F)F)C3)CC1CC#N (centres unmarked) [Compound 27, 2-(1-acryloyl-4-(2-((2-(dimethylamino)cyclopentyl)methoxy)-7-(2-(trifluoromethyl)phenyl)-5,6,7,8-tetrahydropyrido[3,4-d]pyrimidin-4-yl)piperazin-2-yl)acetonitrile] | – | – | – | 310 | 84.6 | 566 | – | – | – | – | –
C=CC(=O)N1CCN(c2nc(OCC3CCCC3N(C)C)nc3c2CCN(c2cccc4ccccc24)C3)CC1CC#N (centres unmarked) [Compound 14, 2-(1-acryloyl-4-(2-((2-(dimethylamino)cyclopentyl)methoxy)-7-(naphthalen-1-yl)-5,6,7,8-tetrahydropyrido[3,4-d]pyrimidin-4-yl)piperazin-2-yl)acetonitrile] | – | – | – | 217 | 54.1 | 234 | – | – | – | – | –
